Results as given in publication PMC9607427, “Novel 7-Chloro-(4-thioalkylquinoline) Derivatives: Synthesis and Antiproliferative Activity through Inducing Apoptosis and DNA/RNA Damage” (Pharmaceuticals, 2022).

Tests used:
[1] = system: eight human cancer and 4 non-tumor cell lines; test: Cytotoxic MTS assay, whole panel of tested cell lines; type: cell-based; settings: for Selectivity for cancer cells compared against BJ and MRC-5 cells: colon, leukemia, lung and osteosarcoma cancer cell lines vs BJ and MRC-5
Protocol: (§1) In vitro cytotoxic activity of final compounds 5–82 was evaluated after 3 days of incubation against eight cell lines derived from human solid tumors including lung (A549 cells) and colon (HCT116 and HCT116p53−/−) carcinomas, as well as leukemia cell lines (CCRF-CEM, CEM-DNR, K562, and K562-TAX) and osteosarcoma (U2OS cells). For comparison, non-malignant BJ and MRC-5 fibroblasts, and BJLD and MCR-5LD fibroblasts doxorubicin-resistant cell lines were used. Concentrations inhibiting the cell growth by 50% (IC50) were determined using a quantitative metabolic staining with 3-(4,5-dimethylthiazol-2yl)-5-(3-carboxymethoxyphenyl)-2-(4-sulfophenyl)-2H-tetrazolium (MTS) and are summarized in (Table 3).
(§2) Cytotoxic activity was determined by MTS assay following 72 h of incubation. IC50 is the lowest concentration that kills 50% of cells. The standard deviation in cytotoxicity assays is typically up to 20% of the average value. […] The tested cell lines: A549 (lung adenocarcinoma), BJ (noncancerous human fibroblasts from foreskin), BJLD (human lung fibroblast doxorubicin-resistant), CCRF-CEM (childhood T cell acute lymphoblastic leukemia), a daunorubicin-resistant subline of CCRF-CEM cells (CEM-DNR bulk), HCT116 (colorectal carcinoma), HCT116p53−/− (HCT116 with deleted p53 gene), K562 (chronic myeloid leukemia), K562-TAX (chronic myeloid leukemia paclitaxel-resistant subline), MRC-5 (noncancerous human lung fibroblasts), MRC-5LD (noncancerous human lung fibroblasts doxorubicin-resistant), and U2OS (osteosarcoma).
(§3) All cell lines were purchased from the American Tissue Culture Collection (ATCC). The A549 cell line is lung adenocarcinoma. MRC-5 and BJ cell lines were used as a non-tumor control and represent human fibroblasts. (MRC-5 LD and BJLD) are doxorubicin-resistant human lung fibroblast cell lines. The CCRF-CEM line is derived from T lymphoblastic leukemia, evincing high chemosensitivity, whereas K562 represent cells from an […] patient sample with bcr-abl translocation. The daunorubicin-resistant subline of CCRF-CEM cells (CEM-DNR bulk) and paclitaxel-resistant subline K562-TAX were selected in our laboratory by the cultivation of maternal cell lines in increasing concentrations of daunorubicin or paclitaxel, respectively. The CEM-DNR bulk cells overexpress MRP-1 and P-glycoprotein protein, whereas K562-TAX cells overexpress P-glycoprotein only. Both proteins belong to the family of ABC transporters and are involved in the primary and/or acquired multidrug-resistance phenomenon. The U2OS cell line is derived from osteosarcoma, HCT116 is a colorectal tumor cell line and its p53 gene knock-down counterpart (HCT116p53−/−, Horizon Discovery Ltd., Cambridge, UK) is a model of human cancers with p53 mutation frequently associated with poor prognosis. The cells were maintained in nunc/corning 80 cm^2 plastic tissue culture flasks and cultured in a cell culture medium according to ATCC or Horizon recommendations (DMEM/RPMI 1640 with 5 g/L glucose, 2 mM glutamine, 100 U/mL penicillin, […], 10% fetal calf serum, and NaHCO3).
(§4) The activity of compounds was determined using a standard 3-(4,5-dimethylthiazol-2-yl)-5-(3-carboxymethoxyphenyl)-2-(4-sulfophenyl)-2H-tetrazolium (MTS) and it was performed at the Institute of Molecular and Translational Medicine by a robotic platform (High-ResBiosolutions). Cell suspensions were prepared and diluted according to the particular cell type and the expected target cell density (25,000–35,000 cells/mL based on cell growth characteristics). Cells were added by automatic pipettor (30 µL) into 384-well microtiter plates. All tested compounds were dissolved in 100% DMSO and four-fold dilutions of the intended test concentration were added in 0.15 µL aliquots at time zero to the microtiter plate wells by the echo acoustic non-contact liquid handler Echo550 (Labcyte). […]

[2] = system: BJLD (human lung fibroblast doxorubicin-resistant); test: Cytotoxic MTS assay, BJLD; type: cell-based
Protocol: as §1, §2, §3, §4

U2OS (osteosarcoma) = test: Cytotoxic MTS assay, U2OS; type: cell-based, human
Protocol: as §1, §2, §3, §4

[3] = system: HCT116p53−/− (HCT116 with deleted p53 gene); test: Cytotoxic MTS assay, HCT116p53−/−; type: cell-based, human
Protocol: as §1, §2, §3, §4

[4] = system: K562-TAX (chronic myeloid leukemia paclitaxel-resistant subline); test: Cytotoxic MTS assay, K562-TAX; type: cell-based, human
Protocol: as §1, §2, §3, §4

[5] = system: HCT116 (colorectal carcinoma); test: Cytotoxic MTS assay, HCT116; type: cell-based, human
Protocol: as §1, §2, §3, §4

[6] = system: CCRF-CEM (childhood T cell acute lymphoblastic leukemia); test: Cytotoxic MTS assay, CCRF-CEM; type: cell-based, human
Protocol: as §1, §2, §3, §4

[7] = system: K562 (chronic myeloid leukemia); test: Cytotoxic MTS assay, K562; type: cell-based, human
Protocol: as §1, §2, §3, §4

[8] = system: MRC-5LD (noncancerous human lung fibroblasts doxorubicin-resistant); test: Cytotoxic MTS assay, MRC-5LD; type: cell-based
Protocol: as §1, §2, §3, §4

[9] = system: CEM-DNR bulk (daunorubicin-resistant subline of CCRF-CEM cells); test: Cytotoxic MTS assay, CEM-DNR; type: cell-based, human
Protocol: as §1, §2, §3, §4

[10] = system: A549 (lung adenocarcinoma); test: Cytotoxic MTS assay, A549; type: cell-based, human
Protocol: as §1, §2, §3, §4

[11] = system: BJ (noncancerous human fibroblasts from foreskin); test: Cytotoxic MTS assay, BJ; type: cell-based
Protocol: as §1, §2, §3, §4

[12] = system: MRC-5 (noncancerous human lung fibroblasts); test: Cytotoxic MTS assay, MRC-5; type: cell-based
Protocol: as §1, §2, §3, §4

Structure (SMILES) | IC50 [1] [µM] | IC50 [2] [µM] | IC50 (U2OS (osteosarcoma)) [µM] | IC50 [3] [µM] | IC50 [4] [µM] | IC50 [5] [µM] | IC50 [6] [µM] | Selectivity for cancer cells compared against BJ and MRC-5 cells [1] | IC50 [7] [µM] | IC50 [8] [µM] | IC50 [9] [µM] | IC50 [10] [µM] | IC50 [11] [µM] | IC50 [12] [µM] | Cancer cell selectivity for A549 cells compared to BJ and MRC-5 cell lines ([10]; A549 vs BJ and MRC-5) | Selectivity for leukemic and colorectal cancer cells compared to MRC-5 ([1]; leukemic and colorectal (with and without p53 deletion) cancer cells vs MRC-5)
Cc1ccc(C)c(C(=O)OCCS(=O)(=O)c2cc[n+]([O-])c3cc(Cl)ccc23)c1 [Compound 71, 2-[(N-Oxide 7-chloroquinolin-4-yl)sulfonyl]ethyl-,5-dimethylbenzoate] | > 50 | – | – | – | – | – | – | – | – | – | – | – | – | – | – | –
Cc1cc(C)cc(C(=O)OCCCS(=O)(=O)c2cc[n+]([O-])c3cc(Cl)ccc23)c1 [Compound 81, 3-[(N-Oxide 7-chloroquinolin-4-yl)sulfonyl]propyl-3,5-dimethylbenzoate] | – | 25.4 | 5.67 | 4.76 | 6.26 | 3.46 | 1.2 | most pronounced selectivity | 3.78 | 21.9 | 6.63 | 5.32 | 32.5 | 46.7 | – | –
COc1cc(OC)cc(C(=O)OCCC[S+]([O-])c2ccnc3cc(Cl)ccc23)c1 (centres unmarked) [Compound 55, 3-[(7-Chloroquinolin-4-yl)sulfinyl]propyl-,5-dimethoxybenzoate] | > 50 | – | – | – | – | – | – | – | – | – | – | – | – | – | – | –
COc1ccc(C(=O)OCCCS(=O)(=O)c2cc[n+]([O-])c3cc(Cl)ccc23)cc1[N+](=O)[O-] [Compound 79, 3-[(N-Oxide 7-chloroquinolin-4-yl)sulfonyl]propyl-4-methoxy-3-nitrobenzoate] | – | 12 | 4.95 | 4.98 | 3.73 | 3.81 | 1.05 | good selectivity | 6.09 | 13.8 | 4.49 | 5.79 | 19 | 20.6 | moderate cancer cell selectivity | –
COc1cccc(C(=O)OCCCS(=O)(=O)c2cc[n+]([O-])c3cc(Cl)ccc23)c1OC [Compound 74, 3-[(N-Oxide 7-chloroquinolin-4-yl)sulfonyl]propyl-2,3-dimethoxybenzoate] | – | 10.5 | 5.4 | – | 4.91 | 3.23 | 1.41 | – | 2.71 | 16.2 | 5.58 | 5.35 | 14.9 | 20.4 | – | good selectivity
